Data on three compounds can be found in patent US20230174584A1, “Antibiotic Compounds” (priority 2019, published 2023).

One assay deals with S. pneumoniae 153. The assay is described as follows: MIC assay. It is filed as cell-based. Summed up: (§1)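 Following CLSI guidance, the assay uses twofold compound dilutions in tryptic soy broth plus 0.002% polysorbate 80, equal-volume inoculum of 10^6 CFU/mL, and a 24 h shaken incubation at 37 °C. Values are medians of triplicate or more, in μg/mL.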
A further assay concerns Escherichia coli W3110. As to the kind of experiment: MIC assay. Format: cell-based. Summed up: as §1
The test system of assay [1] is Klebsiella pneumoniae JS265. The assay is described as follows: MIC assay. Format: cell-based. The essentials: as §1
In assay [2] the test system is Klebsiella pneumoniae ATCC 13883. The assay is described as follows: MIC assay. Format: cell-based. Summed up:
as §1

Assay [3] relates to Klebsiella pneumoniae ATCC 27736. As to the kind of experiment: MIC assay. It is filed as cell-based. The essentials:
as §1

The subject of assay [4] is Escherichia coli ATCC 35218. The assay is described as follows: MIC assay. Format: cell-based. The essentials: as §1
In assay [5] the test system is Escherichia coli ATCC 25922. The assay is described as follows: MIC assay. Format: cell-based. Summed up: as §1
The test system of another assay is S. aureus USA300. As to the kind of experiment: microbe, parasite or virus in culture. It is filed as cell-based, Staphylococcus aureus. Summed up:
as §1

The subject of assay [6] is S. aureus HIP13419, NR-46413. The assay is described as follows: microbe, parasite or virus in culture. Format: cell-based, Staphylococcus aureus. The essentials: as §1
The next assay deals with E. faecium E0341. As to the kind of experiment: MIC assay. Format: cell-based, Enterococcus faecium.
In another assay the test system is E. faecium E2359. As to the kind of experiment: MIC assay. Format: cell-based, Enterococcus faecium.
The subject of assay [7] is S. aureus HIP12864, NR-46074. The assay is described as follows: MIC assay. It is filed as cell-based, Staphylococcus aureus. Summed up: as §1
For assay [8], the system named is S. aureus 880 (BR-VRSA), NR-49120. The assay is described as follows: MIC assay. It is filed as cell-based, Staphylococcus aureus. The essentials: as §1
The test system of assay [9] is S. aureus NY-155, NR-46236. As to the kind of experiment: MIC assay. Format: cell-based, Staphylococcus aureus. Summed up: as §1
The subject of assay [10] is S. aureus LIM-2, NR-25881. As to the kind of experiment: MIC assay. Format: cell-based, Staphylococcus aureus. Summed up: as §1
A further assay concerns S. aureus ATCC29213. The assay is described as follows: MIC assay. Format: cell-based, Staphylococcus aureus. The essentials: as §1
For a further assay, the system named is E. faecalis E1246. The assay is described as follows: MIC assay. Format: cell-based, Enterococcus faecalis. Summed up: as §1
[11] abbreviates: E. faecalis E1246 VRE (vanA), Table 9.
Setting [12] is: Staphylococcus aureus, MRSA / USA300.
The mark [13] stands for this setting: Staphylococcus aureus, ATCC 29213 / MSSA.

Converted amounts (≈) assume the structure as drawn. Like-named read-outs stand apart in the source and are kept apart here.

Turning to `CN[C@H](CC(C)C)C(=O)N[C@H]1C(=O)N[C@@H](CC(N)=O)C(=O)N[C@H]2C(=O)N[C@H]3C(=O)N[C@H](C(=O)N[C@H](C(=O)O)c4cc(O)cc(O)c4-c4cc3ccc4O)[C@H](O)c3ccc(c(Cl)c3)Oc3cc2cc(c3O[C@@H]2O[C@H](CO)[C@@H](O)[C@H](O)[C@H]2O[C@H]2C[C@](C)(NCc3ccc(N=C(N)NC/C=C(\C)CCC=C(C)C)cc3)[C@H](O)[C@H](C)O2)Oc2ccc(cc2Cl)[C@H]1O` [Compound 14], the MIC in the assay with S. pneumoniae 153 (S. pneumoniae 153, TSB+0.002% p80+5% lysed horse blood) was at most 0.008 µg/mL; in the assay with Escherichia coli W3110, above 128 µg/mL; in assay [1], above 128 µg/mL; in assay [2], above 128 µg/mL; in assay [3], above 128 µg/mL; in assay [4], above 128 µg/mL. The MIC in assay [5] is above 128 µg/mL; in the assay on S. aureus USA300 (MRSA USA300, TSB + 0.002% p80), 0.031 µg/mL; with S. aureus USA300 (S. aureus USA300 MRSA) it was 0.03125 µg/mL (≈ 0.018 µM); in assay [6] (S. aureus HIP13419, NR-46413 VRSA), 0.063 µg/mL (≈ 0.0364 µM); in the assay with E. faecium E0341 (E. faecium E0341, VanA), 4 µg/mL (≈ 2.31 µM); against E. faecium E2359 (E. faecium E2359, VanB), at most 0.008 µg/mL. The MIC in assay [7] (S. aureus HIP12864, NR-46074 VISA) is 0.031 µg/mL (≈ 0.0179 µM); in [8] (S. aureus 880, NR-49120 VRSA) it was 1 µg/mL (≈ 0.577 µM); in assay [9] (S. aureus NY-155, NR-46236 MRSA) it was at most 0.008 µg/mL; in assay [10] (S. aureus LIM-2, NR-25881 VISA), at most 0.008 µg/mL; in the assay with S. aureus ATCC29213 (S. aureus ATCC29213 MSSA), at most 0.007812 µg/mL; against E. faecalis E1246 (E. faecalis E1246 VRE (VanA), Table 7), 8 µg/mL (≈ 4.62 µM). This compound also showed an MIC in the assay on E. faecalis E1246 (setting [11]) of 8 µg/mL (≈ 4.62 µM).
For `CCCCCCCCCCNCCN[C@@]1(C)C[C@H](O[C@H]2[C@H](Oc3c4cc5cc3Oc3ccc(cc3Cl)[C@@H](O)[C@@H](NC(=O)[C@@H](CC(C)C)NC)C(=O)N[C@@H](CC(N)=O)C(=O)N[C@H]5C(=O)N[C@H]3C(=O)N[C@H](C(=O)N[C@H](C(=O)O)c5cc(O)c(CNCP(=O)(O)O)c(O)c5-c5cc3ccc5O)[C@H](O)c3ccc(c(Cl)c3)O4)O[C@H](CO)[C@@H](O)[C@@H]2O)O[C@@H](C)[C@H]1O` [Telavancin, reference compound], the MIC was at most 0.008 µg/mL against S. pneumoniae 153 (Streptococcus pneumoniae, 153); above 128 µg/mL in the assay with Escherichia coli W3110 (read-out: MIC); above 128 µg/mL in assay [1] (read-out: MIC); above 128 µg/mL in assay [2] (ATCC13883, read-out: MIC); above 128 µg/mL in [3] (ATCC27736, read-out: MIC); above 128 µg/mL in assay [4]. The MIC in [5] (ATCC25922, read-out: MIC) is above 128 µg/mL; against S. aureus USA300 (setting [12]) it was 0.125 µg/mL (≈ 0.0712 µM); in assay [6] (Staphylococcus aureus, VRSA), 4 µg/mL (≈ 2.28 µM); in the assay on E. faecium E0341 (Enterococcus faecium, E0341), 8 µg/mL (≈ 4.56 µM); against E. faecium E2359 (Enterococcus faecium, E2359), at most 0.008 µg/mL; in assay [7] (Staphylococcus aureus, VISA), 0.25 µg/mL (≈ 0.142 µM). Moreover, the MIC is 8 µg/mL (≈ 4.56 µM) in assay [8] (Staphylococcus aureus, VRSA); 8 µg/mL (≈ 4.56 µM) in assay [8] (strain BR-VRSA); 0.031 µg/mL (≈ 0.0177 µM) in [9] (Staphylococcus aureus, MRSA); 0.25 µg/mL (≈ 0.142 µM) in [10] (Staphylococcus aureus, VISA); 0.125 µg/mL (≈ 0.0712 µM) with S. aureus ATCC29213 (setting [13]); 4 µg/mL (≈ 2.28 µM) against E. faecalis E1246 (setting [11]). For the same compound, the MIC with E. faecalis E1246 (Enterococcus faecalis, VRE) stood at 4 µg/mL (≈ 2.28 µM).
For `CN[C@H](CC(C)C)C(=O)N[C@H]1C(=O)N[C@@H](CC(N)=O)C(=O)N[C@H]2C(=O)N[C@H]3C(=O)N[C@H](C(=O)N[C@H](C(=O)O)c4cc(O)cc(O)c4-c4cc3ccc4O)[C@H](O)c3ccc(c(Cl)c3)Oc3cc2cc(c3O[C@@H]2O[C@H](CO)[C@@H](O)[C@H](O)[C@H]2O[C@H]2C[C@](C)(N)[C@H](O)[C@H](C)O2)Oc2ccc(cc2Cl)[C@H]1O` [Vancomycin, reference compound], the MIC in the assay with S. pneumoniae 153 (Streptococcus pneumoniae, 153) was 0.5 µg/mL (≈ 0.345 µM); in the assay on Escherichia coli W3110 (read-out: MIC), above 128 µg/mL; in [1] (read-out: MIC) it was above 128 µg/mL; in assay [2] (ATCC13883, read-out: MIC) it was above 128 µg/mL; in [3] (ATCC27736, read-out: MIC), above 128 µg/mL; in assay [4], above 128 µg/mL. Moreover, the MIC was above 128 µg/mL in [5] (ATCC25922, read-out: MIC); 1 µg/mL (≈ 0.69 µM) with S. aureus USA300 (setting [12]); above 128 µg/mL in assay [6] (Staphylococcus aureus, VRSA); above 128 µg/mL with E. faecium E0341 (Enterococcus faecium, E0341); 128 µg/mL (≈ 88.3 µM) against E. faecium E2359 (Enterococcus faecium, E2359); 8 µg/mL (≈ 5.52 µM) in assay [7] (Staphylococcus aureus, VISA). The MIC was above 128 µg/mL in [8] (Staphylococcus aureus, VRSA); above 128 µg/mL in [8] (strain BR-VRSA); 2 µg/mL (≈ 1.38 µM) in assay [9] (Staphylococcus aureus, MRSA); 8 µg/mL (≈ 5.52 µM) in assay [10] (Staphylococcus aureus, VISA); 1 µg/mL (≈ 0.69 µM) in the assay with S. aureus ATCC29213 (setting [13]); above 128 µg/mL with E. faecalis E1246 (setting [11]). The same compound returned an MIC with E. faecalis E1246 (Enterococcus faecalis, VRE) above 128 µg/mL.
